Assay [1] has as its system HTT. In words: Gene panel canonical junction qPCR assay, HTT CJ mRNA (Table 7). The note with it: Homo sapiens, read-out: HTT CJ mRNA decrease IC50. The class given is cell-based, human. A digest of the protocol: (§1)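 A673 or K562 cells treated with compound; canonical exon-junction mRNA measured by RT-qPCR with junction-spanning primers/probe, normalised to GAPDH, GUSB or PPIA and DMSO (ΔΔCt, RQ). Percentage response set from fixed ΔCt assay windows, fitted to a 4-parameter logistic; IC50 is concentration giving 50% CJ decrease.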
Background: In qPCR the cycle at which signal appears reflects the starting amount.

The subject of assay [2] is HTT. In words: RT-qPCR splicing assay, HTT AJ/CJ mRNA. It is filed as cell-based, human. The note with it: Homo sapiens, 24 h, A673 or K562 cells; for IC50: decrease in canonical junction mRNA; for AC50: increase in alternative junction mRNA. A digest of the protocol:
(§2)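 A673 or K562 cells were treated for 24 h at 37° C with an 11-point 3-fold compound series (top 10 uM, DMSO ≤0.25%). Lysates underwent RT-qPCR for the canonical (CJ) and alternative-exon (AJ) junctions, normalized to GAPDH, GUSB or PPIA, then to DMSO (ΔΔCt), giving RQ and percentage response.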

For the next assay, the system named is SMN2. The experiment in a line: Gene panel canonical junction qPCR assay, SMN2 CJ mRNA (Table 7). The class given is cell-based. The note with it: Homo sapiens, read-out: SMN2 CJ mRNA decrease IC50. The procedure, abridged:
as §1

Assay [3] deals with MYB. In words: RT-qPCR splicing assay, MYB AJ/CJ mRNA. The note with it: Homo sapiens, A673 or K562 cells, 24 hours; for IC50: decrease in canonical junction mRNA; for AC50: increase in alternative junction mRNA. It is filed as cell-based. The procedure, abridged: as §2
The test system of assay [4] is MYB. In words: Gene panel canonical junction qPCR assay, MYB CJ mRNA (Table 7). The class given is cell-based. The note with it: Homo sapiens, read-out: MYB CJ mRNA decrease IC50. A digest of the protocol: as §1
The test system of another assay is Target C. The experiment in a line: Gene panel canonical junction qPCR assay, Target C CJ mRNA (Table 7). It is filed as cell-based, human. The note with it: Homo sapiens, read-out: Target C CJ mRNA decrease IC50. The procedure, abridged: as §1

On to `CN1CCCC2(CCN2c2ccc3c(n2)OCc2cc(-c4cn[nH]c4)ccc2-3)C1` (centres unmarked) [Compound 222, 6-methyl-1-[8-(1H-pyrazol-4-yl)-6H-isochromeno[3,4-b]pyridin-3-yl]-1,6-diazaspiro[3.5]nonane], for which the IC50 with HTT [1], in the assay on HTT [2], with SMN2, in the assay with MYB [3], with MYB [4] and in the assay with Target C was over 10 µM each time. Further, the AC50 in the assay on HTT [2] and with MYB [3] was over 10 µM in each case.
With `COc1cc(-c2ccc3c(c2)COc2nc(O[C@@H]4C[C@H]5CC[C@@H](C4)N5)ccc2-3)cnn1` [Compound 223, (1R,3R,5S)-3-{[8-(6-methoxypyridazin-4-yl)-6H-isochromeno[3,4-b]pyridin-3-yl]oxy}-8-azabicyclo[3.2.1]octane], the IC50 with HTT [1] was under 0.1 µM; in the assay with HTT [2], under 0.1 µM; in the assay with SMN2, under 0.1 µM; in the assay on MYB [3], 0.1 to 1 µM; with MYB [4], 0.1 to 1 µM; with Target C, under 0.1 µM. The half-maximal activity concentration (AC50) in the assay on HTT [2] and in the assay with MYB [3] was under 0.1 µM in each case.
For `FC1(F)CC2CC(Oc3ccc4c(n3)OCc3cc(-c5cn[nH]c5)ccc3-4)CC1N2` (centres unmarked) [Compound 224, 6,6-difluoro-3-{[8-(1H-pyrazol-4-yl)-6H-isochromeno[3,4-b]pyridin-3-yl]oxy}-8-azabicyclo[3.2.1]octane], the IC50 in the assay with HTT [1] was 1 to 10 µM; in the assay on HTT [2], 1 to 10 µM; with SMN2, 1 to 10 µM; with MYB [3], over 10 µM; with MYB [4], over 10 µM; with Target C, over 10 µM. Further, the AC50 is 1 to 10 µM in the assay with HTT [2] and over 10 µM with MYB [3].
On to `COc1cc(-c2ccc3c(c2)COc2nc(OC4CC5CC(F)(F)C(C4)N5)ccc2-3)cnn1` (centres unmarked) [Compound 225, 6,6-difluoro-3-{[8-(6-methoxypyridazin-4-yl)-6H-isochromeno[3,4-b]pyridin-3-yl]oxy}-8-azabicyclo[3.2.1]octane], for which the IC50 in the assay on HTT [1] is 0.1 to 1 µM; with HTT [2], 0.1 to 1 µM; in the assay with SMN2 it was 1 to 10 µM; in the assay on MYB [3], over 10 µM; in the assay on MYB [4], over 10 µM; in the assay on Target C it was over 10 µM. The half-maximal activity concentration (AC50) was 1 to 10 µM in the assay on HTT [2] and over 10 µM in the assay with MYB [3].
On to `COc1cc(-c2ccc3c(c2)COc2nc(OC4CC(C)(C)NC(C)(C)C4)ccc2-3)cnn1` [Compound 226, 3-methoxy-5-{3-[(2,2,6,6-tetramethylpiperidin-4-yl)oxy]-6H-isochromeno[3,4-b]pyridin-8-yl}pyridazine], for which the IC50 is under 0.1 µM in the assay with HTT [1]; under 0.1 µM in the assay on HTT [2]; under 0.1 µM in the assay with SMN2; 0.1 to 1 µM with MYB [3]; 0.1 to 1 µM with MYB [4]; 0.1 to 1 µM in the assay with Target C. Also, the concentration at half-maximal activity (AC50) in the assay with HTT [2] was under 0.1 µM; in the assay on MYB [3], over 10 µM.
For `CN1CCC2(CC1)CCN2c1ccc2c(n1)OCc1cc(-c3cn[nH]c3)ccc1-2` [Compound 227, 7-methyl-1-[8-(1H-pyrazol-4-yl)-6H-isochromeno[3,4-b]pyridin-3-yl]-1,7-diazaspiro[3.5]nonane], the IC50 in the assay on HTT [1], in the assay with HTT [2], in the assay on SMN2, in the assay with MYB [3], with MYB [4] and with Target C was over 10 µM in each case. Further, the AC50 in the assay with HTT [2] and in the assay on MYB [3] was over 10 µM throughout.
On to `C[C@]12CC[C@](C)(C[C@@H](Oc3ccc4c(n3)OCc3cc(-n5cccn5)ccc3-4)C1)N2` [Compound 228], for which the IC50 with HTT [1] fell in the range of 0.1 to 1 µM; with HTT [2], 0.1 to 1 µM; with SMN2, 0.1 to 1 µM; with MYB [3], 1 to 10 µM; in the assay with MYB [4], 1 to 10 µM; in the assay with Target C it was 1 to 10 µM. For the same compound, the AC50 in the assay on HTT [2] and in the assay with MYB [3] was 1 to 10 µM throughout.

What is called IC50 is the concentration that inhibits the measured activity by half. The term AC50 denotes the concentration giving half of the maximal activity seen. Low readings indicate activity at low concentration, high ones activity only at high concentration.

(Values after patent US20240400584A1, “COMPOUNDS AND METHODS FOR MODULATING SPLICING” (REMIX THERAPEUTICS INC., priority 2021, published 2024).)
